Measured values from US12616674B2, “Anti-fibrotic NEU3 inhibitor compounds and methods of use” (The Texas A&M University System, priority 2019, dated 2026).

Tested on: bleomycin-induced pulmonary fibrosis, C57BL/6 mice
Experiment: Bleomycin-induced pulmonary fibrosis in mice
Format: in vivo, mouse
Conditions: for fibrosis-associated inflammation (BAL cell counts, CD11b, CD11c, CD45, Ly6G, Ly6C): daily i.p. from day 10, 1 mg/kg (2-acetyl pyridine, methyl picolinate) or 0.1 mg/kg (AMPCA), day 21, FIGS. 8A-F; for bleomycin-induced decrease in weights of mice / bleomycin-induced collagen deposition in the lungs (Sirius red staining): daily i.p. from day 10, 1 mg/kg (2AP, MP) or 0.1 mg/kg (AMPCA); for bleomycin-induced decrease in weights of mice: 21 days, FIGS. 11A-D; for bleomycin-induced collagen deposition in the lungs (Sirius red staining): day 21, FIGS. 9-10
Experimental: To determine if selected compounds affect pulmonary fibrosis in mice, 8-10 week old 26-30 g male C57BL/6 mice (Jackson, Bar Harbor, ME) were given an oropharyngeal aspiration of 3 units/kg bleomycin (2246-10, 50, BioVision Incorporated, Milpitas, CA) in 50 μl of 0.9% saline to induce symptoms of pulmonary fibrosis or oropharyngeal saline as a control following Current protocols in mouse biology 2, 167-175, (2012). Starting 10 days after bleomycin had been administered, some of the bleomycin-treated mice were given daily intraperitoneal injections of 100 μl of PBS or 1 mg/kg 2-acetyl pyridine (sc-254121, Santa Cruz Biotechnology, Inc. Dallas, TX) or 1 mg/kg methyl picolinate (sc-228575, Santa Cruz Biotechnology, Inc.) or 0.1 mg/kg of 2-piperidinecarboxylic acid, 4-amino-1-methyl (A00285-13785-026, Sundia, Shanghai, China) in 100 μl PBS. At day 21, mice were sacrificed by CO2 inhalation, and bronchoalveolar lavage (BAL) fluid and cytospins of BAL cells were obtained as previously described in Current protocols in mouse biology 2, 167-175 (2012); Proceedings of the National Academy of Sciences of the United States of America 112, 11929-11934 (2015); Proceedings of the National Academy of Sciences of the United States of America 111, 18291-18296 (2014); Proceedings of the National Academy of Sciences of the United States of America 112, 8385-8390 (2015); and Public Library of Science ONE 9, e93730 (2014) (all hereby incorporated by reference). The total cells from cytospins were quantified as described previously in Current protocols in mouse biology 2, 167-175, (2012); and Public Library of Science ONE 9, e93730 (2014). The lungs were removed and inflated with Surgipath frozen section compound (3801480, Leica, Buffalo Grove, IL) and preserved at −80° C. 6-10 μm cryosections of lungs were placed on glass slides (48311-703, VWR). The experiment was performed in accordance with the recommendations in the Guide for the Care and Use of Laboratory Animals of the National Institutes of Health. The Texas A&M University Animal Use and Care Committee approved the protocol.
Cryosections were stained for collagen with 0.1% Sirius red (09400, Polysciences, Warrington, PA), in saturated picric acid (26853-07, Electron Microscopy Sciences, Hatfield, PA) for 15 minutes at room temperature. The sections were washed in 0.5% acetic acid in water (v/v) for 10 minutes with two washes at room temperature. After dehydrating the sections in ethanol, the sections were mounted in Permount mounting medium (17986-01, Electron Microscopy Sciences). The sections were imaged on a Nikon Microphot-FX (Nikon, Tokyo, Japan), and staining was quantified with ImageJ.
Immunohistochemistry on BAL cytospins was performed as described previously in Public Library of Science ONE 9, e93730 (2014); Proceedings of the National Academy of Sciences of the United States of America 111, 18291-18296 (2014); and Proceedings of the National Academy of Sciences of the United States of America 112, 8385-8390 (2015) using anti-CD11b (101202, clone M1/70 BioLegend, San Diego, CA) to detect blood and inflammatory macrophages, anti-CD11c (M100-3, clone 223H7, MBL International, Woburn, MA) to detect alveolar macrophages and dendritic cells, anti-CD45 (103102, clone 30-F11, BioLegend) for total leukocytes, anti-Ly-6G (127602, clone 1A8, BioLegend) to detect neutrophils, and anti-Ly-6C (128001, clone HK1.4, BioLegend) to detect a variety of inflammatory immune system cells, and with isotype-matched irrelevant antibodies (BioLegend) as controls.

SMILES | fibrosis-associated inflammation (BAL cell counts, CD11b, CD11c, CD45, Ly6G, Ly6C) | bleomycin-induced decrease in weights of mice | bleomycin-induced collagen deposition in the lungs (Sirius red staining)
CC(=O)c1ccccn1 [Compound 5, 2-acetylpyridine] | can reduce fibrosis-associated inflammation | attenuated | reduced
COC(=O)c1ccccn1 [Compound 6, methyl picolinate] | can reduce fibrosis-associated inflammation | attenuated | reduced
CN1CCC(N)CC1C(=O)O (stereo not drawn) [Compound 26, 2-piperidinecarboxylic acid, 4-amino-1-methyl] | can reduce fibrosis-associated inflammation | attenuated | reduced
